Assays:
Format in all cases: functional, cell-based
Vero = assay: Inhibitory concentration against herpes simplex 1 strain Patton in vero cells; details: Chlorocebus sabaeus
HFF [1] = assay: Inhibitory concentration against human respiratory syncytial virus strain A2 in human foreskin fibroblasts
HFF [2] = assay: Inhibitory concentration against human cytomegalovirus strain Ad169 in human foreskin fibroblasts

Row | SMILES | IC50 (Vero) | IC50 (HFF [1]) | IC50 (HFF [2])
1 | NC(=O)CN(CC(N)=O)S(=O)(=O)c1cccc(Nc2nc(Cl)cc(Nc3ccc(-c4ccc(Nc5cc(Cl)nc(Cl)n5)cc4S(=O)(=O)O)c(S(=O)(=O)O)c3)n2)c1 | 47.2 µM | 16.7 µM | 24.9 µM
2 | NC(=O)CCCN(CCCC(N)=O)S(=O)(=O)c1cccc(Nc2nc(Nc3cccc(S(=O)(=O)N(CCCC(N)=O)CCCC(N)=O)c3)nc(Nc3ccc(-c4ccc(Nc5nc(Nc6cccc(S(=O)(=O)N(CCCC(N)=O)CCCC(N)=O)c6)nc(Nc6cccc(S(=O)(=O)N(CCCC(N)=O)CCCC(N)=O)c6)n5)cc4S(=O)(=O)O)c(S(=O)(=O)O)c3)n2)c1 |  | 0.1 µM | 
3 | O=S(=O)(O)c1cc(Nc2nc(Nc3cccc(S(=O)(=O)N(CCO)CCO)c3)nc(Nc3cccc(S(=O)(=O)N(CCO)CCO)c3)n2)ccc1-c1ccc(Nc2nc(Nc3cccc(S(=O)(=O)N(CCO)CCO)c3)nc(Nc3cccc(S(=O)(=O)N(CCO)CCO)c3)n2)cc1S(=O)(=O)O | 14.7 µM | 0.09 µM | 2.3 µM
4 | NC(=O)CN(CC(N)=O)S(=O)(=O)c1cccc(Nc2cc(Nc3ccc(-c4ccc(Nc5cc(Nc6cccc(S(=O)(=O)N(CC(N)=O)CC(N)=O)c6)nc(Nc6cccc(S(=O)(=O)N(CC(N)=O)CC(N)=O)c6)n5)cc4S(=O)(=O)O)c(S(=O)(=O)O)c3)nc(Cl)n2)c1 | 18.9 µM | 1.8 µM | 7 µM
5 | NC(=O)CCN(CCC(N)=O)S(=O)(=O)c1cccc(Nc2nc(Cl)nc(Nc3ccc(-c4ccc(Nc5nc(Nc6cccc(S(=O)(=O)N(CCC(N)=O)CCC(N)=O)c6)nc(Nc6cccc(S(=O)(=O)N(CCC(N)=O)CCC(N)=O)c6)n5)cc4S(=O)(=O)O)c(S(=O)(=O)O)c3)n2)c1 |  | 0.25 µM | 16.8 µM
6 | NC(=O)CCN(CCC(N)=O)S(=O)(=O)c1cccc(Nc2nc(Nc3cccc(S(=O)(=O)N(CCC(N)=O)CCC(N)=O)c3)nc(Nc3ccc(-c4ccc(Nc5nc(Nc6cccc(S(=O)(=O)N(CCC(N)=O)CCC(N)=O)c6)nc(Nc6cccc(S(=O)(=O)N(CCC(N)=O)CCC(N)=O)c6)n5)cc4S(=O)(=O)O)c(S(=O)(=O)O)c3)n2)c1 |  | 0.08 µM | 
7 | NC(=O)CCN(CCC(N)=O)S(=O)(=O)c1cccc(Nc2nc(Nc3cccc(S(=O)(=O)N(CCC(N)=O)CCC(N)=O)c3)nc(Nc3ccc(/C=C/c4ccc(Nc5nc(Nc6cccc(S(=O)(=O)N(CCC(N)=O)CCC(N)=O)c6)nc(Nc6cccc(S(=O)(=O)N(CCC(N)=O)CCC(N)=O)c6)n5)cc4S(=O)(=O)O)c(S(=O)(=O)O)c3)n2)c1 |  | 0.15 µM | 
8 | NC(=O)CN(CC(N)=O)S(=O)(=O)c1cccc(Nc2cc(Nc3ccc(-c4ccc(Nc5nc(Nc6cccc(S(=O)(=O)N(CC(N)=O)CC(N)=O)c6)ncc5Cl)cc4S(=O)(=O)O)c(S(=O)(=O)O)c3)nc(Cl)n2)c1 | 25.4 µM | 3.5 µM | 13.8 µM
9 | O=S(=O)(O)c1cc(Nc2cc(Nc3cccc(S(=O)(=O)N(CCO)CCO)c3)nc(Nc3cccc(S(=O)(=O)N(CCO)CCO)c3)n2)ccc1-c1ccc(Nc2cc(Nc3cccc(S(=O)(=O)N(CCO)CCO)c3)nc(Nc3cccc(S(=O)(=O)N(CCO)CCO)c3)n2)cc1S(=O)(=O)O | 16.8 µM | 0.82 µM | 4.4 µM
10 | NC(=O)CN(CC(N)=O)S(=O)(=O)c1cccc(Nc2nc(Nc3cccc(S(=O)(=O)N(CC(N)=O)CC(N)=O)c3)nc(Nc3ccc(-c4ccc(Nc5nc(Nc6cccc(S(=O)(=O)N(CC(N)=O)CC(N)=O)c6)nc(Nc6cccc(S(=O)(=O)N(CC(N)=O)CC(N)=O)c6)n5)cc4S(=O)(=O)O)c(S(=O)(=O)O)c3)n2)c1 [RF-1461] | 7.72 µM | 0.05 µM | 2.55 µM

From ChEMBL document CHEMBL1144253, “Pyrimidine containing RSV fusion inhibitors” (Bioorg Med Chem Lett, 2005)
